The values that follow come from PMC4216111, “The Bile Acid-Sensitive Ion Channel (BASIC) Is Activated by Alterations of Its Membrane Environment” (PLoS ONE, 2014).

Data set [1] is described as follows: Solubility in bath solution. Type of data set: physicochemical. Particulars: read-out: solubility limit.
Data set [2] concerns mouse BASIC. Kind of data set: Two-electrode voltage clamp, oocytes expressing mouse BASIC. In general terms: Two-electrode voltage clamp holds a large cell at a set potential and records current.
The target of data set [3] is T1, rat BASIC (Rattus norvegicus, UniProt Q9R0W5).
T1 sequence (Q9R0W5 1-495): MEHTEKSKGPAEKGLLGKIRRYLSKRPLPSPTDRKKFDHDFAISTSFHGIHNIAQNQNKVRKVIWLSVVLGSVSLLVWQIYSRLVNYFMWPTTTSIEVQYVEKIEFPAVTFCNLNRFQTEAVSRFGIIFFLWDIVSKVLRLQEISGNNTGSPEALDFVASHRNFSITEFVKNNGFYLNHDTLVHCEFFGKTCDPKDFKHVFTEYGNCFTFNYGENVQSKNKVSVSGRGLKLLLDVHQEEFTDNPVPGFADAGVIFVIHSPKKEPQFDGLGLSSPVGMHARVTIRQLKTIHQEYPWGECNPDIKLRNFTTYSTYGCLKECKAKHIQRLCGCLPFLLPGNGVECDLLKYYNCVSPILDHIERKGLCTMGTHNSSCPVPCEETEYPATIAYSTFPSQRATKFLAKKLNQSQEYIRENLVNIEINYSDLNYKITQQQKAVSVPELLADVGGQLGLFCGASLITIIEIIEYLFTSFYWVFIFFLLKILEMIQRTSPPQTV
Kind of data set: Two-electrode voltage clamp, Xenopus laevis oocytes expressing rat BASIC. Particulars: for IC50: read-out: IC50 of BASIC inhibition.

Data set [4] deals with T2, mouse BASIC.
T2 construct: expressed in transfected cells; host or cells: Xenopus laevis oocytes injected with cRNA
More on the design: method as in PMID 21828194. Particulars: cited from earlier work.

The test system of data set [5] is human BASIC. More on the design: method as in PMID 21828194. Particulars: cited from earlier work.
Data set [6] addresses T1, rat BASIC. More on the design: expressed in transfected cells; host or cells: Xenopus laevis oocytes injected with cRNA. Particulars: cited from earlier work.
Data set [7] has as its system non-injected oocytes. Kind of data set: Two-electrode voltage clamp, non-injected control oocytes.
Data set [8] relates to Hydra Na^+ Channel (HyNaC) 2/3/5. The data set is described as follows: Two-electrode voltage clamp, oocytes expressing HyNaC2/3/5. Type of data set: cell-based. Particulars: 400 µM SDS, 500 µM NL, 100 µM Triton-X 100, 5 µM RFamide I.
The subject of data set [9] is rat ASIC1a. Kind of data set: Two-electrode voltage clamp, oocytes expressing rat ASIC1a. Particulars: 400 µM SDS, 500 µM NL, 100 µM Triton-X 100, 2 mM UDCA.
Data set [10] deals with rASIC1a-rBASIC-loop. Kind of data set: Two-electrode voltage clamp, chimera rASIC1a-rBASIC-loop. Type of data set: cell-based, rat. Particulars: 2 mM UDCA. The source says:
(§1) Clones for rat BASIC (accession No. NM_022227), mouse BASIC (accession No. NM_021370), rat ASIC1a (accession No. NM_024154) and HyNaC 2, 3 and 5 (accession No. AM393878, AM393880 and FN257513) were described previously, [15], [16]. Chimeras between BASIC and ASIC1a were generated by overlap PCR and PCR fragments were cloned into the expression vector pRSSP6009 [15] using the In-Fusion cloning kit (Invitrogen, Germany). Sequences were confirmed by sequencing. Plasmid DNAs were linearized using the restriction endonucleases MluI or NaeI. cRNA was synthesized from linearized plasmids using the SP6 mMessage mMachine kit (Ambion, USA).
(§2) Chemicals were purchased from Sigma or Merck.

In data set [11] the test system is rBASIC-rASIC1a-loop. The data set is described as follows: Two-electrode voltage clamp, chimera rBASIC-rASIC1a-loop. Particulars: 2 mM UDCA. The format is cell-based, rat.
Source text: as §1, §2

In data set [12] the test system is rASIC1a-rBASIC-loop 1, - 2 and -3. The data set is described as follows: Two-electrode voltage clamp, chimeras rASIC1a-rBASIC-loop 1, -2 and -3. Type of data set: cell-based, rat. Particulars: 2 mM UDCA.
Source text: as §1, §2

In data set [13] the test system is rASIC1a rBASIC loop 1–2, rASIC1a rBASIC loop 2–3. Kind of data set: Two-electrode voltage clamp, chimeras rASIC1a rBASIC loop 1–2 and loop 2–3. Particulars: 2 mM UDCA. Type of data set: cell-based, rat.
Source text: as §1, §2

The subject of data set [14] is rASIC1a-rBASIC-TM1, -TM2 or -TM. The data set is described as follows: Two-electrode voltage clamp, chimeras rASIC1a-rBASIC-TM1, -TM2 or -TM. Type of data set: cell-based, rat. Particulars: 2 mM UDCA.
Source text: as §1, §2

Where [15] appears, read: 2 mM UDCA, 500 µM CPZ, 10 mM TNP, 100 µM Triton-X 100, 500 µM NL, 400 µM SDS, n = 8.
The mark [16] stands for this setting: 400 µM SDS, 500 µM N-lauroylsarcosine, 100 µM Triton-X 100, n = 7.
Setting [17] is: 400 µM SDS, 500 µM NL, 100 µM Triton-X 100, n = 8.

Like-named read-outs stand apart in the source and are kept apart here.

One may read the solubility as how much of the substance goes into solution per volume. `CN(C)CCCN1c2ccccc2Sc2ccc(Cl)cc21` [CPZ, chlorpromazine]: the solubility in data set [1] was at most 500 µM. For the same molecule, the “activity of mouse BASIC, normalized to the amiloride-sensitive current” value (shortened to “activity of mouse BASIC, normalized”) in [2] (setting [15]) is on record as 0.95 fold. Also, in data set [3] (0.5 mM CPZ co-applied with 2 mM UDCA), the “decrease of the response of BASIC to 2 mM UDCA” value was 2.0 fold.
Regarding `O=C(O)c1ccccc1Nc1cccc(C(F)(F)F)c1` [FFA, flufenamic acid], the “effect on mouse BASIC” value in data set [4] is on record as “not affected”. In data set [5], the “activation of human BASIC” value is reported as “activated”. Moreover, the “activation of rat BASIC” value in data set [6] is listed as “activated”.
For orientation: IC50 means the point on the concentration scale where inhibition reaches its midpoint. `[Gd+3]` [Gd^3+, gadolinium]: in data set [7], the “response of non-injected control oocytes” value is given as “did not respond”. In addition, the “effect on UDCA-dependent activation of BASIC” value in data set [3] (100 µM Gd^3+ co-applied with 2 mM UDCA) is “completely abolished”. Moreover, the IC50 was 102 ± 34 µM in data set [3] (in the absence of UDCA (resting state), n = 8) and 19 ± 7 µM in data set [3] (in the presence of 2 mM UDCA, n = 8).
For `CCCCCCCCCCCC(=O)N(C)CC(=O)O` [NL, N-lauroylsarcosine], the “activation of HyNaC 2/3/5” value in data set [8] is listed as “not activated”. The “current in un-injected oocytes” value in [7] (setting [16]) is reported as 35±0.8 nA. Also, in data set [9], the “activation of ASIC1a” value is listed as “not activated”. The “activity of mouse BASIC, normalized” value in data set [2] (setting [15]) worked out at 1.5 fold. Besides, the “increase of the low-activity (DIMI-sensitive) BASIC currents” value (shortened to “increase of the low-activity”) in data set [3] (setting [17]) is reported as 3 fold. Further, in data set [3] (co-applied with diminazene), the “effect on currents when applied in the presence of diminazene” value (from here on “effect on currents when applied”) was “did not increase currents”.
Regarding `CCCCCCCCCCCCOS(=O)(=O)[O-].[Na+]` [SDS], the “activation of HyNaC 2/3/5” value in [8] is “not activated”. The “current in un-injected oocytes” value in [7] (setting [16]) was determined as 34±0.6 nA. Moreover, the “activation of ASIC1a” value in [9] is “not activated”. For the same molecule, in data set [2] (setting [15]), the “activity of mouse BASIC, normalized” value worked out at 1.5 fold. Besides, the “increase of the low-activity” value in data set [3] (setting [17]) worked out at 2 fold. For the same molecule, the “effect on currents when applied” value in data set [3] (co-applied with diminazene) is recorded as “did not increase currents”.
As usually defined, the EC50 is the midpoint of the concentration-response curve. Low readings indicate greater potency, high ones weaker potency. On to `C[C@H](CCC(=O)NCCS(=O)(=O)O)[C@H]1CC[C@H]2[C@@H]3[C@@H](O)C[C@@H]4C[C@H](O)CC[C@]4(C)[C@H]3CC[C@]12C` [UDCA, tauroursodeoxycholic acid], for which, in data set [10], the “UDCA sensitivity of chimera rASIC1a-rBASIC-loop” value is given as “weakly sensitive to UDCA”. In data set [11], the “response to UDCA of chimera rBASIC-rASIC1a-loop compared to removal of divalent cations” value was “extremely weak”. Moreover, the “response to UDCA of chimeras rASIC1a-rBASIC-loop 1, -2 and -3” value in [12] was “responded weakly to UDCA”. Further, the “activation by UDCA of chimeras loop 1–2 and loop 2–3” value in data set [13] was “weakly activated by UDCA”. Besides, in data set [14], the “activation by UDCA of chimeras rASIC1a-rBASIC-TM1, -TM2, -TM” value was “activated by UDCA”. Besides, in data set [9], the “activation of ASIC1a” value is “not activate ASIC1a”. The “activity of mouse BASIC, normalized” value in data set [2] (setting [15]) is listed as 1.3 fold. In data set [3], this molecule registered an EC50 of 2700 ± 60 µM. Also, the “activation of BASIC” value in data set [3] (2 mM UDCA) is on record as “strongly activated BASIC”. The “maximum current at 5 mM UDCA” value in [3] (5 mM UDCA, n = 10) is on record as 23.8±2.4 µA.
Consider `CC(C)CCC[C@@H](C)[C@H]1CC[C@H]2[C@@H]3CC=C4C[C@@H](O)CC[C@]4(C)[C@H]3CC[C@]12C` [cholesterol], for which the “effect of cholesterol application on rBASIC dependent current” value in [3] (2 mM MβCD-balanced water-soluble cholesterol, 10 sec) is recorded as “did not affect the rBASIC dependent current”.
With `N=C(N)c1ccc(/N=N/Nc2ccc(C(=N)N)cc2)cc1` [diminazene], the “effect of diminazene on BASIC currents” value in data set [3] (100 µM DIMI alone or together with SDS, NL or Triton-X 100) was “inhibited BASIC currents”. Further, in data set [3] (n = 8), the “DIMI-sensitive current in the absence of stimulatory substances” value turned out to be 0.25±0.03 µA.
Consider MβCD, for which the “effect of cholesterol removal on rBASIC activity” value in data set [3] (20 mM MβCD, approximately 2 h, control, −Ca^2+ and 2 mM UDCA) is reported as “does not influence rBASIC activity”.
As for Triton-X 100, the “activation of HyNaC 2/3/5” value in data set [8] is recorded as “not activated”. Moreover, the “current in un-injected oocytes” value in data set [7] was determined as 35±0.8 nA. Besides, the “activation of ASIC1a” value in [9] is listed as “not activated”. Further, in data set [2], the “activity of mouse BASIC, normalized” value came out at 1.2 fold. In addition, in [3], the “effect on currents when applied” value is “inhibited by diminazene” and the “increase of the low-activity” value is 1.5 fold.
